Reference: publication PMC10408569, “Recruitment of hexahydroquinoline as anticancer scaffold targeting inhibition of wild and mutants EGFR (EGFR^WT, EGFR^T790M, and EGFR^L858R)” (Journal of Enzyme Inhibition and Medicinal Chemistry, 2023)

Experiments:
CCRF-CEM = experiment: NCI-60 anticancer screening (SRB); format: cell-based; conditions: Homo sapiens, leukemia, one dose 10 μM, read-out: Growth Inhibition Percentage (GI %)
HL-60(TB) = experiment: NCI-60 anticancer screening (SRB); format: cell-based; conditions: Homo sapiens, leukemia, one dose 10 μM, read-out: Growth Inhibition Percentage (GI %)
K-562 = experiment: NCI-60 anticancer screening (SRB); format: cell-based; conditions: Homo sapiens, K562; K-562, leukemia; one dose 10 μM; read-out: Growth Inhibition Percentage (GI %)
MOLT-4 = experiment: NCI-60 anticancer screening (SRB); format: cell-based; conditions: Homo sapiens; MOLT-4, leukemia; one dose 10 μM; read-out: Growth Inhibition Percentage (GI %)
EKVX = experiment: NCI-60 anticancer screening (SRB); format: cell-based; conditions: Homo sapiens, NSC lung cancer, one dose 10 μM, read-out: Growth Inhibition Percentage (GI %)
HOP-92 = experiment: NCI-60 anticancer screening (SRB); format: cell-based; conditions: Homo sapiens; HOP-92, NSC lung cancer; one dose 10 μM; read-out: Growth Inhibition Percentage (GI %)
NCI-H226 = experiment: NCI-60 anticancer screening (SRB); format: cell-based; conditions: Homo sapiens; NCI-H226, NSC lung cancer; one dose 10 μM; read-out: Growth Inhibition Percentage (GI %)
NCI-H522 = experiment: NCI-60 anticancer screening (SRB); format: cell-based; conditions: Homo sapiens; NCI-H522, NSC lung cancer; one dose 10 μM; read-out: Growth Inhibition Percentage (GI %)
COLO 205 = experiment: NCI-60 anticancer screening (SRB); format: cell-based; conditions: Homo sapiens; COLO 205, colon cancer; one dose 10 μM; read-out: Growth Inhibition Percentage (GI %)
SF-268 = experiment: NCI-60 anticancer screening (SRB); format: cell-based; conditions: Homo sapiens; SF-268, CNS cancer; one dose 10 μM; read-out: Growth Inhibition Percentage (GI %)
SF-295 = experiment: NCI-60 anticancer screening (SRB); format: cell-based; conditions: Homo sapiens; SF-295, CNS cancer; one dose 10 μM; read-out: Growth Inhibition Percentage (GI %)
SNB-75 = experiment: NCI-60 anticancer screening (SRB); format: cell-based; conditions: Homo sapiens; SNB-75, CNS cancer; one dose 10 μM; read-out: Growth Inhibition Percentage (GI %)
U251 = experiment: NCI-60 anticancer screening (SRB); format: cell-based; conditions: Homo sapiens, U-251; U251, CNS cancer; one dose 10 μM; read-out: Growth Inhibition Percentage (GI %)
LOX IMVI = experiment: NCI-60 anticancer screening (SRB); format: cell-based; conditions: Homo sapiens, melanoma, one dose 10 μM, read-out: Growth Inhibition Percentage (GI %)
MALME-3M = experiment: NCI-60 anticancer screening (SRB); format: cell-based; conditions: Homo sapiens, melanoma, one dose 10 μM, read-out: Growth Inhibition Percentage (GI %)
M14 = experiment: NCI-60 anticancer screening (SRB); format: cell-based; conditions: Homo sapiens; M14, melanoma; one dose 10 μM; read-out: Growth Inhibition Percentage (GI %)
SK-MEL-2 = experiment: NCI-60 anticancer screening (SRB); format: cell-based; conditions: Homo sapiens; SK-MEL-2, melanoma; one dose 10 μM; read-out: Growth Inhibition Percentage (GI %)
SK-MEL-28 = experiment: NCI-60 anticancer screening (SRB); format: cell-based; conditions: Homo sapiens; SK-MEL-28, melanoma; one dose 10 μM; read-out: Growth Inhibition Percentage (GI %)
UACC-62 = experiment: NCI-60 anticancer screening (SRB); format: cell-based; conditions: Homo sapiens; UACC-62, melanoma; one dose 10 μM; read-out: Growth Inhibition Percentage (GI %)
OVCAR-3 = experiment: NCI-60 anticancer screening (SRB); format: cell-based; conditions: Homo sapiens; OVCAR-3, ovarian cancer; one dose 10 μM; read-out: Growth Inhibition Percentage (GI %)
OVCAR-4 = experiment: NCI-60 anticancer screening (SRB); format: cell-based; conditions: Homo sapiens; OVCAR-4, ovarian cancer; one dose 10 μM; read-out: Growth Inhibition Percentage (GI %)
OVCAR-8 = experiment: NCI-60 anticancer screening (SRB); format: cell-based; conditions: Homo sapiens; OVCAR-8, ovarian cancer; one dose 10 μM; read-out: Growth Inhibition Percentage (GI %)
NCI/ADR-RES = experiment: NCI-60 anticancer screening (SRB); format: cell-based; conditions: Homo sapiens, ovarian cancer, one dose 10 μM, read-out: Growth Inhibition Percentage (GI %)
786-0 = experiment: NCI-60 anticancer screening (SRB); format: cell-based; conditions: Homo sapiens; 786-0, renal cancer; one dose 10 μM; read-out: Growth Inhibition Percentage (GI %)
A498 = experiment: NCI-60 anticancer screening (SRB); format: cell-based; conditions: Homo sapiens; A498, renal cancer; one dose 10 μM; read-out: Growth Inhibition Percentage (GI %)
CAKI-1 = experiment: NCI-60 anticancer screening (SRB); format: cell-based; conditions: Homo sapiens; CAKI-1, renal cancer; one dose 10 μM; read-out: Growth Inhibition Percentage (GI %)
TK-10 = experiment: NCI-60 anticancer screening (SRB); format: cell-based; conditions: Homo sapiens; TK-10, renal cancer; one dose 10 μM; read-out: Growth Inhibition Percentage (GI %)
UO-31 = experiment: NCI-60 anticancer screening (SRB); format: cell-based; conditions: Homo sapiens; UO-31, renal cancer; one dose 10 μM; read-out: Growth Inhibition Percentage (GI %)
DU-145 = experiment: NCI-60 anticancer screening (SRB); format: cell-based; conditions: Homo sapiens; DU-145, prostate cancer; one dose 10 μM; read-out: Growth Inhibition Percentage (GI %)
MCF7 = experiment: NCI-60 anticancer screening (SRB); format: cell-based; conditions: Homo sapiens; MCF7, breast cancer; one dose 10 μM; read-out: Growth Inhibition Percentage (GI %)
HS 578T = experiment: NCI-60 anticancer screening (SRB); format: cell-based; conditions: Homo sapiens; HS 578T, breast cancer; one dose 10 μM; read-out: Growth Inhibition Percentage (GI %)
BT-549 = experiment: NCI-60 anticancer screening (SRB); format: cell-based; conditions: Homo sapiens; BT-549, breast cancer; one dose 10 μM; read-out: Growth Inhibition Percentage (GI %)
MDA-MB-468 = experiment: NCI-60 anticancer screening (SRB); format: cell-based; conditions: Homo sapiens; MDA-MB-468, breast cancer; one dose 10 μM; read-out: Growth Inhibition Percentage (GI %)

Structure (SMILES)	inhibition at 10 µM (CCRF-CEM) [%]	inhibition at 10 µM (HL-60(TB)) [%]	inhibition at 10 µM (K-562) [%]	inhibition at 10 µM (MOLT-4) [%]	inhibition at 10 µM (EKVX) [%]	inhibition at 10 µM (HOP-92) [%]	inhibition at 10 µM (NCI-H226) [%]	inhibition at 10 µM (NCI-H522) [%]	inhibition at 10 µM (COLO 205) [%]	inhibition at 10 µM (SF-268) [%]	inhibition at 10 µM (SF-295) [%]	inhibition at 10 µM (SNB-75) [%]	inhibition at 10 µM (U251) [%]	inhibition at 10 µM (LOX IMVI) [%]	inhibition at 10 µM (MALME-3M) [%]	inhibition at 10 µM (M14) [%]	inhibition at 10 µM (SK-MEL-2) [%]	inhibition at 10 µM (SK-MEL-28) [%]	inhibition at 10 µM (UACC-62) [%]	inhibition at 10 µM (OVCAR-3) [%]	further results
CCOC(=O)C1=C(N)N(c2ccccc2)C2=C(C(=O)CC(C)(C)C2)C1c1ccccc1Cl (racemic) [6a, (±)-Ethyl 2-amino-4–(2-chlorophenyl)-7,7-dimethyl-5-oxo-1-phenyl-1,4,5,6,7,8-hexahydroquinoline-3-carboxylate]	52	123	59	75	26	32	24	43	35	20	25	34	21	15	11	50	43	19	56	38	inhibition at 10 µM (OVCAR-4): 26%; inhibition at 10 µM (OVCAR-8): 17%; inhibition at 10 µM (NCI/ADR-RES): 27%; inhibition at 10 µM (786-0): 21%; inhibition at 10 µM (A498): < 10%; inhibition at 10 µM (CAKI-1): 54%; inhibition at 10 µM (TK-10): < 10%; inhibition at 10 µM (UO-31): 45%; inhibition at 10 µM (DU-145): 12%; inhibition at 10 µM (MCF7): 44%; inhibition at 10 µM (HS 578T): < 10%; inhibition at 10 µM (BT-549): 22%; inhibition at 10 µM (MDA-MB-468): 50%; melting point: 168 to 170 °C
CCOC(=O)C1=C(N)N(c2ccc(C)cc2)C2=C(C(=O)CC(C)(C)C2)C1c1ccccc1Cl (racemic) [6b, (±)-Ethyl 2-amino-4–(2-chlorophenyl)-7,7-dimethyl-1–(4-methylphenyl)-5-oxo-1,4,5,6,7,8-hexahydroquinoline-3-carboxylate]	< 10	< 10	< 10	< 10	15	< 10	< 10	17	19	< 10	< 10	29	< 10	< 10	< 10	< 10	< 10	< 10	23	17	inhibition at 10 µM (OVCAR-4): < 10%; inhibition at 10 µM (OVCAR-8): 20%; inhibition at 10 µM (NCI/ADR-RES): < 10%; inhibition at 10 µM (786-0): < 10%; inhibition at 10 µM (A498): < 10%; inhibition at 10 µM (CAKI-1): 31%; inhibition at 10 µM (TK-10): < 10%; inhibition at 10 µM (UO-31): 19%; inhibition at 10 µM (DU-145): < 10%; inhibition at 10 µM (MCF7): 32%; inhibition at 10 µM (HS 578T): < 10%; inhibition at 10 µM (BT-549): 11%; inhibition at 10 µM (MDA-MB-468): 20%; melting point: 240 to 242 °C
CCOC(=O)C1=C(N)N(c2ccc(Cl)cc2)C2=C(C(=O)CC(C)(C)C2)C1c1ccccc1Cl (racemic) [6c, (±)-Ethyl 2-amino-4–(2-chlorophenyl)-1–(4-chlorophenyl)-7,7-dimethyl-5-oxo-1,4,5,6,7,8-hexahydroquinoline-3-carboxylate]	40	75	< 10	< 10	30	29	25	63	62	23	27	17	54	18	30	28	24	< 10	45	44	inhibition at 10 µM (OVCAR-4): 32%; inhibition at 10 µM (OVCAR-8): 30%; inhibition at 10 µM (NCI/ADR-RES): 24%; inhibition at 10 µM (786-0): 15%; inhibition at 10 µM (A498): < 10%; inhibition at 10 µM (CAKI-1): 43%; inhibition at 10 µM (TK-10): 43%; inhibition at 10 µM (UO-31): 51%; inhibition at 10 µM (DU-145): < 10%; inhibition at 10 µM (MCF7): 58%; inhibition at 10 µM (HS 578T): < 10%; inhibition at 10 µM (BT-549): 40%; inhibition at 10 µM (MDA-MB-468): 60%; melting point: 179 to 181 °C
